In US20180024136A1, “Development of ABCG2-Sensitive Fluorescent Probe For Isolation of ABCG2low Neural Stem/Progenitor Cells” (National University of Singapore, priority 2015, published 2018):

Tests used:
[1] = tested on: E14.5 mouse embryonic brain cells; test: Neurosphere formation of FACS-sorted E14.5 embryonic brain cells; format: cell-based; settings: 6 days culture, >50 μm diameter, 10,000 cells/well
From the text: For the counting of the number of neurosphere, we selected 6 days-cultured neurospheres having larger than 50 μm of diameter. The whole neurospheres in a well were counted to reduce random counting error using EVOS microscope (Advanced Microscopy Group).
E14.5 embryos were obtained from C57BL/6 pregnant mice. Cerebral cortices were removed and triturated into single-cell suspension by digestion of dissected tissues with StemPro® Accutase® (Invitrogen) and filtered through 40 μm nylon mesh. The brain cells were collected by centrifugation with 400×g for 3 min and resuspended in neurosphere growth medium [DMEM/F12 supplemented with 2% B27 (without vitamin A), bFGF (10 ng/ml), EGF (20 ng/ml), 1× anti-anti]. The cells were stained for 1 hour with 1 μM of CDg13 in neurosphere growth medium. After collecting cells by centrifuge as described above, the cells were resuspended to BSA-free DMEM (phenol red free) and added propidium iodide (PI) at a concentration of 1 μg/ml to distinguish dead cells. FACS sorting was performed using the MoFlo XDP cell sorter (Beckman Coulter). Cells were sorted by pre-gating with FSC/SSC properties to exclude small debris having FSC^low/SSC^low. To isolate CDg13 stained cell population, we used a 488 nm laser excitation and a 529/28 BP filter to collect emitted light. Dead cells stained by PI were detected with a 488 nm excitation and a 620/29 BP emission. […]

[2] = Spectroscopic properties of CF library (absorbance, emission, quantum yield, extinction coefficient); format: physicochemical
Protocol: All the chemicals and solvents were purchased from Sigma Aldrich, Alfa Aesar, Fluka, MERCK, Tocris or Acros, and used without further purification. Normal phase purifications were carried out using Merck Silica Gel 60 (particle size: 0.040-0.063 mm, 230-400 mesh). Analytical characterization was performed on a HPLC-MS (Agilent-1200 series) with a DAD detector and a single quadrupole mass spectrometer (6130 series) with an ESI probe. ^1H-NMR and ^13C-NMR spectra were recorded on Bruker Avance 300 MHz NMR spectrometers, and chemical shifts are expressed in parts per million (ppm) and coupling constants are reported as a J value in Hertz (Hz). High resolution mass spectrometry (HRMS) data was recorded on a Micro mass VG 7035 (Mass Spectrometry Laboratory at National University of Singapore (NUS)). Spectroscopic and quantum yield data were measured on spectroscopic measurements, performed on a fluorometer and UV/VIS instrument, Synergy 4 of Bioteck Company. The slit width was 1 nm for both excitation and emission, and the data analysis was performed using GraphPrism 5.0.

Abcg2 = test: CDg13 staining of Abcg2 knockdown D-NS5 cells; format: cell-based, mouse; settings: D-NS5, siAbcg2 versus controls, 1 hour staining
Protocol: FIGS. 9A-9D show gene expression of ABC transporters: (A) undifferentiated (NS5) and 3-days differentiated NS5 (D-NS5), (B) the mRNA expression of the indicated ABC transporters were analyzed by qRT-PCR using total RNA from control and Abcg2-targeted siRNA transfected D-NS5 cells (N=3), and (C) and (D) negative (−) control siRNA (siCon) and Abcg2-targeted siRNA (siAbcg2) treated D-NS5 cells were stained with CDg13 for 1 hour, representative cells image (C) and the intensity staining of CDg13 (D) are shown (N=3) (data were normalized by β-actin expression and represented as relative fold, all values are means±SEM, *, p<0.05; **, p<0.01, unpaired two-tailed Student's T-test was used to calculate statistical significance)(Bar in (C): 100 μm).
siRNAs targeted to mouse ABCG2 gene and non-targeted control (Santa Cruz) were transiently introduced to 2 days differentiated NS-5 cells by using RNAiMAX (Invitrogen). We used 20 nM of siRNA and 3 μl of RNAiMAX for transfecting one well of 12-well plate (70-80% confluence with cells). Transfection efficiency in the condition was more than 90% as measured by fluorescence non-targeted siRNA. The levels of RNA and their analysis were performed after 3 days of transfection.

mouse NSPCs = test: Neurosphere size after co-incubation with probe; format: cell-based; settings: 1 μM, 7 days

## CCCCCCCCCN(CCCCCCCCC)C(=O)c1ccc(-c2c3cc(Cl)c(=O)cc-3oc3cc(O)c(Cl)cc23)cc1 [CDg13]
[1]
  number of neurospheres of CDg13^bright cells compared to CD133^high cells: 1.5 fold
  number of neurospheres of CDg13^bright cells compared to unsorted brain cells: 5.9 fold
[2]; 100 μM in ethanol
  Abs (nm): 520 nm
  Em (nm): 553 nm
[2]; 100 μM in ethanol, reference fluorescein
  QY (Φ): 0.82
[2]; measured in ethanol
  extinction co-efficient: 40933.2 M⁻¹ cm⁻¹
Abcg2
  CDg13 staining increase by Abcg2 knockdown: around 2 fold
Mouse NSPCs
  effect on neurosphere size: no significant difference in neurosphere size
Mouse NSPCs; third passage
  neurosphere size on average: 109 μm
